Data reported in paper PMC8744835, “Sterically Hindered Quaternary Phosphonium Salts (QPSs): Antimicrobial Activity and Hemolytic and Cytotoxic Properties” (International Journal of Molecular Sciences, 2021).
Values after ≈ are worked out from the molar mass of the structure shown.

Columns and labels:
[1] = test system: Pseudomonas aeruginosa ATCC 9027; experiment: Antimicrobial activity, serial dilution technique in Mueller–Hinton Broth 2; type: cell-based; settings: average of three ± SD, - means non-active
Experimental: (§1) The synthesized compounds were tested for antimicrobial activity against a number of Gram-positive bacteria, Staphylococcus aureus (Sa), Bacillus cereus (Bc) and Enterococcus faecalis (Ef), and Gram-negative bacteria, Escherichia coli (Ec) and Pseudomonas aeruginosa (Pa), including the methicillin-resistant strains S. aureus MRSA-1 (resistant to fluoroquinolones and beta-lactams) and MRSA-2 (resistant to beta-lactams). The methicillin-resistant strains S. aureus were transferred by the Republican Clinical Hospital of the Republic of Tatarstan (Kazan). The fungicidal activity against Candida albicans (Ca) and Trichophyton mentagrophytes var. gypseum (Tm) was studied. These pathogens were chosen because they are the most widespread in the food industry and the healthcare system.
(§2) The antimicrobial activity of the QPSs was determined using the serial dilution technique in Mueller–Hinton Broth 2. The cultures used for testing included the Gram-positive bacteria Staphylococcus aureus ATCC 6538P FDA 209P, Enterococcus faecalis ATCC 2921 and Bacillus cereus ATCC 10702 NCTC 8035, the Gram-negative bacteria Escherichia coli ATCC 25922 and Pseudomonas aeruginosa ATCC 9027, and the fungi Trichophyton mentagrophytes var. gypseum 1773 and Candida albicans ATCC 10231; methicillin-resistant strains of S. aureus MRSA were obtained from hospital patients with chronic tonsillitis (MRSA-1) and sinusitis (MRSA-2) in the Republican Clinical Hospital (Kazan, Russia). […] The bacterial load was 3.0 × 10^5 cfu/mL. The results were recorded every 24 h for 5 days. The cultures were incubated at 37 °C. The experiment was repeated three times. […] The minimum inhibitory concentration (MIC) was defined as the minimum concentration of a compound that inhibits the growth of the corresponding test micro-organism. The growth of bacteria as well as the absence of growth due to the bacteriostatic action of a compound was recorded.

[2] = test system: Staphylococcus aureus ATCC 6538P FDA 209P; experiment: as above; type: cell-based; settings: average of three ± SD, - means non-active; for MIC: read-out: Minimum Inhibitory Concentration (MIC), Sa
Experimental: as §1, §2

[3] = test system: Bacillus cereus ATCC 10702 NCTC 8035; experiment: as above; type: cell-based; settings: average of three ± SD, - means non-active; for MIC / MBC: Bacillus cereus, Bc; for MIC: read-out: Minimum Inhibitory Concentration (MIC), Bc; for MBC: read-out: Minimum Bactericidal and Fungicidal Concentration (MBC, MFC), Bc
Experimental: as §1, §2

[4] = test system: Enterococcus faecalis ATCC 2921; experiment: as above; type: cell-based; settings: average of three ± SD, - means non-active; for MIC / MBC: Enterococcus faecalis, ATCC2921, Ef; for MIC: read-out: Minimum Inhibitory Concentration (MIC), Ef; for MBC: read-out: Minimum Bactericidal and Fungicidal Concentration (MBC, MFC), Ef
Experimental: as §1, §2

[5] = test system: methicillin-resistant S. aureus MRSA-1; experiment: as above; type: cell-based, Staphylococcus aureus; settings: - means non-active; for MIC / Minimum Inhibitory Concentration (MIC), MRSA-1: MRSA-1 (resistant to fluoroquinolones and beta-lactams); for MIC: read-out: Minimum Inhibitory Concentration (MIC), MRSA-1
Experimental: as §1, §2

[6] = test system: methicillin-resistant S. aureus MRSA-2; experiment: as above; type: cell-based, Staphylococcus aureus; settings: - means non-active; for MIC / Minimum Inhibitory Concentration (MIC), MRSA-2: MRSA-2 (resistant to beta-lactams); for MIC: read-out: Minimum Inhibitory Concentration (MIC), MRSA-2
Experimental: as §1, §2

[7] = test system: Escherichia coli ATCC 25922; experiment: as above; type: cell-based; settings: average of three ± SD, - means non-active
Experimental: as §1, §2

[8] = test system: Candida albicans ATCC 10231; experiment: Fungicidal activity, serial dilution technique; type: cell-based; settings: average of three ± SD, - means non-active; for MBC / MIC / MFC: Candida albicans, ATCC10231, Ca; for MBC / MFC: read-out: Minimum Bactericidal and Fungicidal Concentration (MBC, MFC), Ca; for MIC: read-out: Minimum Inhibitory Concentration (MIC), Ca
Experimental: as §1
(§3) The antimicrobial activity of the QPSs was determined using the serial dilution technique in Mueller–Hinton Broth 2. The cultures used for testing included the Gram-positive bacteria Staphylococcus aureus ATCC 6538P FDA 209P, Enterococcus faecalis ATCC 2921 and Bacillus cereus ATCC 10702 NCTC 8035, the Gram-negative bacteria Escherichia coli ATCC 25922 and Pseudomonas aeruginosa ATCC 9027, and the fungi Trichophyton mentagrophytes var. gypseum 1773 and Candida albicans ATCC 10231; methicillin-resistant strains of S. aureus MRSA were obtained from hospital patients with chronic tonsillitis (MRSA-1) and sinusitis (MRSA-2) in the Republican Clinical Hospital (Kazan, Russia). Ciprofloxacin and ketoconazole were purchased from Sigma-Aldrich. The bacterial load was 3.0 × 10^5 cfu/mL. The results were recorded every 24 h for 5 days. The cultures were incubated at 37 °C. The experiment was repeated three times. […] The minimum inhibitory concentration (MIC) was defined as the minimum concentration of a compound that inhibits the growth of the corresponding test micro-organism. The growth of bacteria as well as the absence of growth due to the bacteriostatic action of a compound was recorded.

[9] = test system: Trichophyton mentagrophytes var. gypseum 1773; experiment: Fungicidal activity, serial dilution technique; type: cell-based; settings: for Minimum Bactericidal and Fungicidal Concentration (MBC, MFC), Tm / Minimum Inhibitory Concentration (MIC), Tm: average of three ± SD, - means non-active
Experimental: as §1, §3

[10] = test system: Escherichia coli ATCC 25922; experiment: Antimicrobial activity, serial dilution technique in Mueller–Hinton Broth 2; type: cell-based; settings: average of three ± SD, - means non-active; for MBC: Escherichia coli, ATCC25922, Ec, read-out: Minimum Bactericidal and Fungicidal Concentration (MBC, MFC), Ec
[11] = Trichophyton mentagrophytes, read-out: Minimum Bactericidal and Fungicidal Concentration (MBC, MFC), Tm

SMILES	MIC ([2]; Staphylococcus aureus, Sa) [µg/mL]	MIC [3] [µg/mL]	MIC [4] [µg/mL]	MIC ([5]; Staphylococcus aureus, MRSA) [µg/mL]	MIC ([6]; Staphylococcus aureus, MRSA) [µg/mL]	Minimum Bactericidal and Fungicidal Concentration (MBC, MFC), Sa [2] [µg/mL]	MBC [3] [µg/mL]	MBC [4] [µg/mL]	Minimum Inhibitory Concentration (MIC), MRSA-1 [5] [µg/mL]	Minimum Bactericidal and Fungicidal Concentration (MBC, MFC), MRSA-1 ([5]; MRSA-1) [µg/mL]	Minimum Bactericidal and Fungicidal Concentration (MBC, MFC), MRSA-2 ([6]; MRSA-2) [µg/mL]	MBC [8] [µg/mL]	MIC [8] [µg/mL]	Minimum Bactericidal and Fungicidal Concentration (MBC, MFC), Tm [9] [µg/mL]	Minimum Inhibitory Concentration (MIC), Tm [9] [µg/mL]	MBC [10] [µg/mL]	Minimum Inhibitory Concentration (MIC), Sa [2] [µg/mL]	Minimum Bactericidal and Fungicidal Concentration (MBC, MFC), Bc [3] [µg/mL]	Minimum Inhibitory Concentration (MIC), Ec [7] [µg/mL]	Minimum Inhibitory Concentration (MIC), Ca ([8]; Ca) [µg/mL]	other results
O=C(O)c1cn(C2CC2)c2cc(N3CCNCC3)c(F)cc2c1=O [Ciprofloxacin, reference compound]	0.5 ± 0.03 (≈ 1.51 µM)	0.5 ± 0.04 (≈ 1.51 µM)	3.9 ± 0.3 (≈ 11.8 µM)	125 ± 11 (≈ 377 µM)	0.9 ± 0.07 (≈ 2.72 µM)	–	–	–	–	–	–	–	–	–	–	–	–	–	–	–	MIC ([1]; Pseudomonas aeruginosa, ATCC9027, Pa, read-out: Minimum Inhibitory Concentration (MIC), Pa): 0.5 ± 0.03 µg/mL (≈ 1.51 µM)
CCCCCCCCCCC[P+](C(C)(C)C)(C(C)(C)C)C(C)(C)C [Compound 11a]	0.9 ± 0.07	1.9 ± 0.1	7.8 ± 0.5	–	0.9 ± 0.08	1.9 ± 0.1	125 ± 10	7.8 ± 0.6	1.9 ± 0.1	1.9 ± 0.1	7.8 ± 0.6	62.5 ± 5.7	62.5 ± 5.5	31.3 ± 2.5	31.3 ± 2.5	31.3 ± 2.3	–	–	–	–	MIC ([7]; Escherichia coli, ATCC25922, Ec, read-out: Minimum Inhibitory Concentration (MIC), Ec): 31.3 ± 2.6 µg/mL
CCCCCCCCCCC[P+](C(C)(C)C)(C(C)(C)C)C(C)(C)C [Compound 11b]	–	–	–	–	–	3.9 ± 0.2	–	–	0.3 ± 0.02	0.5 ± 0.03	0.9 ± 0.07	–	–	125 ± 9	125 ± 9	–	0.9 ± 0.07	125 ± 10	62.5 ± 5.3	31.3 ± 2.4	Minimum Inhibitory Concentration (MIC), Bc [3]: 1.9 ± 0.1 µg/mL; Minimum Bactericidal and Fungicidal Concentration (MBC, MFC), Ef [4]: 15.6 ± 1.2 µg/mL; Minimum Inhibitory Concentration (MIC), Ef [4]: 7.8 ± 0.6 µg/mL; Minimum Inhibitory Concentration (MIC), MRSA-2 [6]: 0.5 ± 0.04 µg/mL; Minimum Bactericidal and Fungicidal Concentration (MBC, MFC), Ca ([8]; Ca): 31.3 ± 2.1 µg/mL; Minimum Bactericidal and Fungicidal Concentration (MBC, MFC), Ec ([10]; Ec): 62.5 ± 5.4 µg/mL
CCCCCCCCCCCCCCCC[P+](C(C)(C)C)(C(C)(C)C)C(C)(C)C [Compound 16a]	0.5 ± 0.04	1.9 ± 0.1	0.5 ± 0.03	1.9 ± 0.1	0.5 ± 0.03	–	31.3 ± 2.2	0.5 ± 0.03	–	–	–	3.9 ± 0.3	–	–	–	1.9 ± 0.1	–	–	0.9 ± 0.07	1.9 ± 0.1	Minimum Inhibitory Concentration (MIC), Pa ([1]; Pa): 31.3 ± 2.7 µg/mL; MBC ([1]; Pseudomonas aeruginosa, ATCC9027, Pa, read-out: Minimum Bactericidal and Fungicidal Concentration (MBC, MFC), Pa): 125 ± 9 µg/mL; MBC ([2]; Staphylococcus aureus, Sa, read-out: Minimum Bactericidal and Fungicidal Concentration (MBC, MFC), Sa): 0.5 ± 0.03 µg/mL; MBC ([5]; Staphylococcus aureus, MRSA, MRSA-1, read-out: Minimum Bactericidal and Fungicidal Concentration (MBC, MFC), MRSA-1): 7.8 ± 0.6 µg/mL; MBC ([6]; Staphylococcus aureus, MRSA, MRSA-2, read-out: Minimum Bactericidal and Fungicidal Concentration (MBC, MFC), MRSA-2): 7.8 ± 0.7 µg/mL
CCCCCCCCCCCCCCCCC[P+](C(C)(C)C)(C(C)(C)C)C(C)(C)C [Compound 17b]	–	–	–	–	–	0.5 ± 0.04	–	–	1.9 ± 0.1	1.9 ± 0.1	1.9 ± 0.1	–	–	125 ± 11	125 ± 10	–	0.5 ± 0.04	15.6 ± 1.3	15.6 ± 1.2	1.9 ± 0.1	Minimum Bactericidal and Fungicidal Concentration (MBC, MFC), Pa ([1]; Pa): 15.6 ± 1.3 µg/mL; Minimum Inhibitory Concentration (MIC), Pa ([1]; Pa): 7.8 ± 0.6 µg/mL; Minimum Inhibitory Concentration (MIC), Bc [3]: 1.9 ± 0.1 µg/mL; Minimum Bactericidal and Fungicidal Concentration (MBC, MFC), Ef [4]: 3.9 ± 0.2 µg/mL; Minimum Inhibitory Concentration (MIC), Ef [4]: 0.5 ± 0.03 µg/mL; Minimum Inhibitory Concentration (MIC), MRSA-2 [6]: 1.9 ± 0.1 µg/mL; MFC [8]: 7.8 ± 0.7 µg/mL
CC(=O)N1CCN(c2ccc(OCC3COC(Cn4ccnc4)(c4ccc(Cl)cc4Cl)O3)cc2)CC1 (stereo not shown) [Ketoconazole, reference compound]	–	–	–	–	–	–	–	–	–	–	–	3.9 ± 0.3 (≈ 7.34 µM)	3.9 ± 0.3 (≈ 7.34 µM)	–	3.9 ± 0.2	–	–	–	–	3.9 ± 0.3	MFC [8]: 3.9 ± 0.3 µg/mL (≈ 7.34 µM); MBC [9, 11]: 3.9 ± 0.2 µg/mL (≈ 7.34 µM); MFC [9, 11]: 3.9 ± 0.2 µg/mL (≈ 7.34 µM); MIC ([9]; Trichophyton mentagrophytes, read-out: Minimum Inhibitory Concentration (MIC), Tm): 3.9 ± 0.2 µg/mL (≈ 7.34 µM)
